Data published in article PMC4632086, “Effects and possible mechanisms of action of acacetin on the behavior and eye morphology of Drosophila models of Alzheimer’s disease” (Scientific Reports, 2015).
Where two headings read alike, the source gives them in different places.

How the values were obtained:
human BACE-1 = details: cited from earlier work
recombinant human BACE-1 = biological target: T1, recombinant human BACE-1 (Homo sapiens, UniProt P56817); experiment: FRET-based enzyme assay, BACE-1 inhibition; type: biochemical; details: for IC50: pH 4.5, 1 h at 25 °C; for Slope ± SE: slope of concentration-inhibition fit
T1 construct: purchased R&D Systems (Minneapolis, MN, USA)

[1] = system: transgenic Drosophila AD models; parameters: method as in PMID 22348084; details: five different transgenic Drosophila AD models; cited from earlier work

T1 sequence (P56817 46-501): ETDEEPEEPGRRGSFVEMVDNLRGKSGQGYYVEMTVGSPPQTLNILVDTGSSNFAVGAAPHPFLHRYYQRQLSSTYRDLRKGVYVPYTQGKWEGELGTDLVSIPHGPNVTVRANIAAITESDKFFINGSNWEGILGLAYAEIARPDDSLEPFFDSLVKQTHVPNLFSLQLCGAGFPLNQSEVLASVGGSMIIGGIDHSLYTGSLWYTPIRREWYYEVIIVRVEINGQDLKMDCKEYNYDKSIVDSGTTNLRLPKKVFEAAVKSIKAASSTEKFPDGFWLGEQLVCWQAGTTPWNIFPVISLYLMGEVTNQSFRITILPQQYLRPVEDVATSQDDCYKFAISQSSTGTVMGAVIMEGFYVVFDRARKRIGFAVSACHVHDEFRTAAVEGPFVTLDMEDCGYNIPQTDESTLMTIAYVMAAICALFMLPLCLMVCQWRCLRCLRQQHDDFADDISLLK

For `O=C(O[C@@H]1O[C@@H]2COC(=O)c3cc(O)c(O)c(O)c3-c3c(cc(O)c(O)c3O)C(=O)O[C@H]([C@H]1O)[C@@H]2O)c1cc(O)c(O)c(O)c1` [corilagin], the IC50 (human BACE-1; tannins) is listed as 34 µM.
For `C=C[C@@](C)(/C=C/c1ccc(O)cc1)CCC=C(C)C` [bakuchiol], the IC50 (human BACE-1) is given as 21.4 µM.
In the case of `COc1ccc(-c2cc(=O)c3c(O)cc(O)cc3o2)cc1` [Pure acacetin, acacetin], the IC50 (recombinant human BACE-1; read-out: IC50, μM (95% CL)) is reported as 81.2 µM and the “Slope ± SE” value (recombinant human BACE-1) is reported as 0.4 ± 0.03.
In the case of `COc1cc(/C=C/C(=O)CC(=O)/C=C/c2ccc(O)c(OC)c2)ccc1O` [curcumin], the improved lifespan [1] is listed as “up to 75%”.
In the case of `O=C(O)/C=C/c1ccc(O)cc1` [p-coumaric acid], the IC50 (human BACE-1; phenylpropanoids) is listed as 90 µM.
For `C/C=C/c1cc(=O)c2c(C)cc(OC)c([C@@H]3O[C@H](CO)[C@@H](O)[C@H](O)[C@H]3O)c2o1` [C-2′-decoumaroyl-aloeresin G], the IC50 (human BACE-1; benzopyranoids) is listed as 20.5 µM.
In the case of `COc1cc2c(cc1OC)-c1cc3ccc4c(c3c[n+]1CC2)OCO4` [epiberberi], the IC50 (human BACE-1; alkaloids) is given as 8.55 µM.
In the case of `O=C1O[C@H]2[C@@H]3OC(=O)c4cc(O)c(O)c(O)c4-c4c(cc(O)c(O)c4O)C(=O)OC[C@H]2O[C@@H](OC(=O)c2cc(O)c(O)c(O)c2)[C@@H]3OC(=O)c2cc(O)c(O)c3c2[C@@H]2C1=CC(=O)[C@](O)(O3)C2(O)O` [geraniin], the IC50 (human BACE-1; tannins) is listed as 4 µM.
For `CC1(C)CC[C@]2(C(=O)O)CC[C@]3(C)C(=CC[C@@H]4[C@@]5(C)C[C@@H](O)[C@H](O)C(C)(C)[C@@H]5CC[C@]43C)[C@@H]2C1` [Maslinic acid, maslinic acid], the IC50 (recombinant human BACE-1; IC50, μM (95% CL)) was 488 µM and the “Slope ± SE” value (recombinant human BACE-1) was 1.4 ± 0.09.
In the case of `COc1cc(C)c2c(=O)cc(C[C@@H](C)O)oc2c1[C@@H]1O[C@H](CO)[C@@H](O)[C@H](O)[C@H]1OC(=O)/C=C/c1ccc(O)cc1` [aloeresin D], the IC50 (human BACE-1; benzopyranoids) is given as 39 µM.
`CC1(C)CC[C@]2(C(=O)O)CC[C@]3(C)C(=CC[C@@H]4[C@@]5(C)CC[C@H](O)C(C)(C)[C@@H]5CC[C@]43C)[C@@H]2C1` [Oleanolic acid, oleanolic acid] gave an IC50 (recombinant human BACE-1; read-out: IC50, μM (95% CL)) of 355 µM.
For `COc1cc2c(cc1O)CC[n+]1cc3c4c(ccc3cc1-2)OCO4` [groenlandicine], the IC50 (human BACE-1; alkaloids) is listed as 19.7 µM.
